Assay results published in patent US8058009B2, “Target protein and target gene in drug designing and screening method” (Reverse Proteomics Research Institute Co., Ltd., priority 2004, dated 2011).
Each block holds one compound with its values, some of them ahead of it.

Tests used:
[1] = target: T1, FLJ31146-derived protein (Homo sapiens, UniProt Q9BSE4); assay: Biacore S51 surface plasmon resonance binding to FLJ31146-derived protein
T1 construct: made in house; host or cells: wheat germ cell-free synthesis system (PROTEIOS, Toyobo)
T1 sequence (Q9BSE4 1-406): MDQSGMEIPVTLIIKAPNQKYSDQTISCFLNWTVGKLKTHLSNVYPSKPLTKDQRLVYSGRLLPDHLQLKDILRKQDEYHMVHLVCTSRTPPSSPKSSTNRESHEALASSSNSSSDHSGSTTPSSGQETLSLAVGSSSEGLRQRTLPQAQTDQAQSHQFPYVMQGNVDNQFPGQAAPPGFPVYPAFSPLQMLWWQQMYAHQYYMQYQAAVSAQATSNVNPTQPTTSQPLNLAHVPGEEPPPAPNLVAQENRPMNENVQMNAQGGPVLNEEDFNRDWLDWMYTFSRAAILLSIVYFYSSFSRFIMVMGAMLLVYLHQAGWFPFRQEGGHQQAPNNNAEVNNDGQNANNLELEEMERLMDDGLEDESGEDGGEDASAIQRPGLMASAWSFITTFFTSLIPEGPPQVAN
Experimental: (§1) A desired gene of a human full-length cDNA clone was BP-reacted with the PCR cloning vector Gateway pDONR201 using the Invitrogen Gateway system per the kit protocol to yield an entry vector. […]
(§2) The surface of the CM5 sensor chip for S51 commercially available from Biacore Company was subjected to an NTA treatment with 1 M EDC, 1.33 M NHS and 16 mg/ml AB-NTA (pH 9.2) to prepare an NTA sensor chip for S51. […] A correction for the effect of DMSO contained in the compound solutions and running buffer (solvent correction) was performed on the basis of measured results from separately prepared solutions mimicking the running buffer, and containing 3.8 to 5.1% of DMSO (8 points). The compound characterization assay program for Biacore S51 was performed to measure the interactions between immobilized ligands (proteins) and analytes (compounds; 62.5 μM to 0.244 μM), and the results were analyzed using a dedicated software program. […]

[2] = target: T2, FLJ14467-derived protein (Homo sapiens, UniProt Q9HB40); assay: Biacore S51 surface plasmon resonance binding to FLJ14467-derived protein
T2 construct: made in house; host or cells: wheat germ cell-free synthesis system (PROTEIOS, Toyobo)
T2 sequence (Q9HB40 27-452): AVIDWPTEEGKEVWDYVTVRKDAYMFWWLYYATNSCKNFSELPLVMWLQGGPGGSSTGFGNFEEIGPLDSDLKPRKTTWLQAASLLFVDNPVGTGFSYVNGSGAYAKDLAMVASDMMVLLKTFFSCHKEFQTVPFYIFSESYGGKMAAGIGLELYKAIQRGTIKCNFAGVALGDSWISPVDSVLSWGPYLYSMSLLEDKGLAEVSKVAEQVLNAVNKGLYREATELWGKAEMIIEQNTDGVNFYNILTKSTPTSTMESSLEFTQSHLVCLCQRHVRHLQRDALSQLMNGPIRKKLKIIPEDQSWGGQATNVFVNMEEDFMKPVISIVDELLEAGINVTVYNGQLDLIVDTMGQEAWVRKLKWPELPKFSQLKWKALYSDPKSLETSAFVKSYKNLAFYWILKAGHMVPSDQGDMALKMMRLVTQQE
Experimental: as §1, §2

[3] = target: T3, FLJ11045-derived protein (Homo sapiens, UniProt Q9BXT8, E1380K); assay: Biacore S51 surface plasmon resonance binding to FLJ11045-derived protein
T3 construct: made in house; host or cells: wheat germ cell-free synthesis system (PROTEIOS, Toyobo)
T3 sequence (Q9BXT8 949-1581 isoform Q9BXT8-4 E1338K): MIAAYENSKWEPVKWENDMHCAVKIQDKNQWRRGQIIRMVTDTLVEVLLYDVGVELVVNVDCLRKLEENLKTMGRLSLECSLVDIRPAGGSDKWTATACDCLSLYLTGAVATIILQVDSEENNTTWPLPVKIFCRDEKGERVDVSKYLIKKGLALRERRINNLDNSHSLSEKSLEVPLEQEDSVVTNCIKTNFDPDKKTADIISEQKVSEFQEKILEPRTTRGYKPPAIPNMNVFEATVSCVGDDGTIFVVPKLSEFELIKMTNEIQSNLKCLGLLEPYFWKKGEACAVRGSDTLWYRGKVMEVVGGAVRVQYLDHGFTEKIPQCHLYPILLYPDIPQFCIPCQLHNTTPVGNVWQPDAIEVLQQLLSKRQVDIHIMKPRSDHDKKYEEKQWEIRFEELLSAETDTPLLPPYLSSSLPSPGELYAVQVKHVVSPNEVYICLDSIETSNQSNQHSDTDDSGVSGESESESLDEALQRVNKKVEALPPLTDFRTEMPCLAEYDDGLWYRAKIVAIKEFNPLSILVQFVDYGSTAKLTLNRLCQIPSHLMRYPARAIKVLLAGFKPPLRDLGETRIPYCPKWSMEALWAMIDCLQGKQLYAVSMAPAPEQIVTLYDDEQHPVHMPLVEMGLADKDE
Excerpt: A desired gene of a human full-length cDNA clone was BP-reacted with the PCR cloning vector Gateway pDONR201 using the Invitrogen Gateway system per the kit protocol to yield an entry vector. As the destination vector for the Gateway system, a Gateway cassette having a Gateway recombinant sequence was introduced to allow the utilization of the Gateway system on the basis of pEU3-NII (Toyobo), which matches with a cell-free protein synthesis system (PROTEIOS) of Toyobo Co., Ltd., which employs a wheat germ extract, and a double tag destination vector modified using the PCR method to allow the expression of a peptide having a histidine tag and a FLAG tag sequence in the N-terminal region of the expressed protein was prepared.
The prepared double tag destination vector and entry vector were […] using the Invitrogen Gateway system per the protocol and the Escherichia coli competent cell DH5α was transformed therewith; a clone incorporating the expression vector was selected. A plasmid was prepared from the obtained clone using the QIAfilter Midi kit (QUIAGEN) per the kit protocol. The plasmid obtained was subjected to phenol/chloroform treatment per the protocol for PROTEIOS (Toyobo) to inactivate the RNase to yield a purified expression plasmid.
A recombinant protein was synthesized using a cell-free protein synthesis system (PROTEIOS) of Toyobo Co., Ltd., which employs a wheat germ extract. Subsequently, mRNA was prepared from the expression plasmid acquired by the method described in section 1 above per the protocol for PROTEIOS. With 20 μg of the mRNA acquired, a protein was synthesized per the protocol for PROTEIOS using two wells of a 96-well microtiter plate. The protein synthesized was subjected to high-speed centrifugation, the precipitate was removed, and the resulting soluble fraction was purified using ANTI-FLAG M2 Affinity Gel (SIGMA Company) having an anti-FLAG tag antibody immobilized hereto per the protocol, to yield a purified protein.
as §2

[4] = target: T4, FLJ10335-derived protein (Homo sapiens, UniProt Q9NW38, S77P); assay: Biacore S51 surface plasmon resonance binding to FLJ10335-derived protein
T4 construct: made in house; host or cells: wheat germ cell-free synthesis system (PROTEIOS, Toyobo)
T4 sequence (Q9NW38 1-375 S77P): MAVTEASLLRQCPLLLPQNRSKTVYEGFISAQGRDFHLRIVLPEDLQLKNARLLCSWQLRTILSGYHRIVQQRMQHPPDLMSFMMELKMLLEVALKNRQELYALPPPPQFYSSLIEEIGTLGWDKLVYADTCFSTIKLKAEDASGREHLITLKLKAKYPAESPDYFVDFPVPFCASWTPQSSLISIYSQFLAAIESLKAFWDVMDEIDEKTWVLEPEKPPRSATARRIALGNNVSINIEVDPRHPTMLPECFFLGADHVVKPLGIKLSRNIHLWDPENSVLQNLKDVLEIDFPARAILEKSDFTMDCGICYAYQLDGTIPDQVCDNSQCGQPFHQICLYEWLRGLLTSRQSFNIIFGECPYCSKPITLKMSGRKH
Experimental: as §1, §2

[5] = target: T5, FLJ11474-derived protein (Homo sapiens, UniProt Q9BVC4); assay: Biacore S51 surface plasmon resonance binding to FLJ11474-derived protein
T5 construct: made in house; host or cells: wheat germ cell-free synthesis system (PROTEIOS, Toyobo)
T5 sequence (Q9BVC4 1-325 isoform Q9BVC4-5): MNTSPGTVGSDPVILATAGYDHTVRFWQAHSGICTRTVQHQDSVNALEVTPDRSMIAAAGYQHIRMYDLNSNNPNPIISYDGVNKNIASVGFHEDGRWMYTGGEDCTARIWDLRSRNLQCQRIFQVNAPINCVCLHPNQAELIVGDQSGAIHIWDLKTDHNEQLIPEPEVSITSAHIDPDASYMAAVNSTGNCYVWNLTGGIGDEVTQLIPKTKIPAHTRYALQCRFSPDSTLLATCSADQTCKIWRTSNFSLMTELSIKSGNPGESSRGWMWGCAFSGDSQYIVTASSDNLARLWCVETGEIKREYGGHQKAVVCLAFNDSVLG
Experimental: as §1, §2

[6] = target: T6, FLJ14797-derived protein (Homo sapiens, UniProt Q9UGJ1); assay: Biacore S51 surface plasmon resonance binding to FLJ14797-derived protein
T6 construct: made in house; host or cells: wheat germ cell-free synthesis system (PROTEIOS, Toyobo)
T6 sequence (Q9UGJ1 whole entry): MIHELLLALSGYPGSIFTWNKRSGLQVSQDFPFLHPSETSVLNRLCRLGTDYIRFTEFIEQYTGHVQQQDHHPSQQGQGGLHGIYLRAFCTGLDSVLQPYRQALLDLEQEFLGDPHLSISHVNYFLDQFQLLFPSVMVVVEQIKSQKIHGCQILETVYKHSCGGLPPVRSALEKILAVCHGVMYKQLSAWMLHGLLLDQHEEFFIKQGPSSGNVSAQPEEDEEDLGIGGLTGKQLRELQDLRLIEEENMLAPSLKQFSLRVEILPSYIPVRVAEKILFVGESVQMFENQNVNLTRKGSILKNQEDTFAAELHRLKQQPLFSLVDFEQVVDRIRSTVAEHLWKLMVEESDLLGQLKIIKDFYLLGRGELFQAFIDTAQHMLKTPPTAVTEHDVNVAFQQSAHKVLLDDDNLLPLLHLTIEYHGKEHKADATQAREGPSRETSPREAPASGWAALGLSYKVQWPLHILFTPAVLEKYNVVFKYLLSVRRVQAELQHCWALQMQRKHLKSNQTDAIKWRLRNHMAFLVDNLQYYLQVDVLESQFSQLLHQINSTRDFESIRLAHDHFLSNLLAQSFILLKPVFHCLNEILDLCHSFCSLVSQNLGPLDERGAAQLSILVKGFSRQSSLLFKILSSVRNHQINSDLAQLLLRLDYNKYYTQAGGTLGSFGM
Experimental: as §1, §2

- interaction with the protein (binding level dose-proportional, saturated at high doses) [1]: interact specifically
Structure (SMILES): CC1(C)S[C@@H]2[C@H](NC(=O)[C@H](N)c3ccccc3)C(=O)N2[C@H]1C(=O)O [ampicillin]

- interaction with the protein (binding level dose-proportional, saturated at high doses) [2]: interact specifically
- Kd ([3]; Biacore S51, immobilized FLJ11045-derived protein, analyte 62.5 μM to 0.244 μM, read-out: binding dissociation constant Kd): 12.4 µM
- interaction with the protein (binding level dose-proportional, saturated at high doses) ([3]; FLJ11045-derived protein, Biacore S51): interact specifically
- interaction with the protein (binding level dose-proportional, saturated at high doses) [4]: interact specifically
- interaction with the protein (binding level dose-proportional, saturated at high doses) [5]: interact specifically
Structure (SMILES): N[C@@H](C(=O)N[C@@H]1C(=O)N2C(C(=O)O)=C(Cl)CS[C@H]12)c1ccccc1 [cefaclor]

- interaction with the protein (binding level dose-proportional, saturated at high doses) [6]: interact specifically
Structure (SMILES): O=C(c1ccc(F)cc1)C1CCN(CCn2c(=O)[nH]c3ccccc3c2=O)CC1 [ketanserin]
